The values below come from US20140228377A1, “METHYLPIPERIDINE DERIVATIVE” (TAISHO PHARMACEUTICAL CO., LTD., priority 2011, published 2014).

In assay [1] the target is T1, human orexin-1 receptor (hOX1R) (Homo sapiens, UniProt O43613).
T1 construct: expressed in transfected cells; host or cells: Chinese hamster ovary (CHO) cells
T1 sequence (O43613 1-425): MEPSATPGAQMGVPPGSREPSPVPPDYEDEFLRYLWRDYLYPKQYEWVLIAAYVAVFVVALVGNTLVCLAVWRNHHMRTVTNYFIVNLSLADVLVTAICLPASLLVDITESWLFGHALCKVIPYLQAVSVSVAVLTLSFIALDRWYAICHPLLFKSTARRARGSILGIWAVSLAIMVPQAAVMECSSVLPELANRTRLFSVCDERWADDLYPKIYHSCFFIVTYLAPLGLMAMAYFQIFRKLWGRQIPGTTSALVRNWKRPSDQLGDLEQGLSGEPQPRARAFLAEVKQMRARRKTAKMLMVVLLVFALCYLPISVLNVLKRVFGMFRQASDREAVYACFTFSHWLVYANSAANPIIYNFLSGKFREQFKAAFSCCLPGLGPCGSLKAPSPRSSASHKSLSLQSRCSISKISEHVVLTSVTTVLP
The assay is described as follows: Orexin antagonistic activity assay (intracellular Ca2+, FDSS) in CHO cells expressing hOX1R. In kind it is cell-based. Conditions: CHO cells expressing hOX1R; ligand peptide 300 pM; Fluo-3 maximum fluorescence intensity; read-out: IC50 value OX1. Here is the method: (§1) The antagonistic activity of each test compound against human orexin-1 receptor (hOX1R) and orexin-2 receptor (hOX2R) was assayed by a modification of a method described in the literature (Toshikatsu Okumura et al., Biochemical and Biophysical Research Communications 280, 976-981, 2001). Chinese hamster ovary (CHO) cells forced to express hOX1R or hOX2R were inoculated at a density of 20,000 cells/well to a 96-well Black clear bottom plate (Nunc) and cultured at 37° C. for 16 hours under 5% CO2 conditions in a Ham's F-12 medium containing 0.1 mM MEM nonessential amino acids, 0.5 mg/ml G418, and 10% fetal bovine serum (all from Invitrogen Corp.). After removal of the medium, 100 μL of a buffer solution for assay (25 mM HEPES (Dojindo Laboratories), Hanks' balanced salt solution (Invitrogen Corp.), 0.1% bovine serum albumin, 2.5 mM probenecid, and 200 μg/ml Amaranth (all from Sigma-Aldrich Corp.), pH 7.4) containing 0.5 μM Fluo-3 AM ester (Dojindo Laboratories) was added to the cells, which were then incubated at 37° C. for 60 minutes under 5% CO2 conditions. After removal of the buffer solution for assay containing Fluo-3 AM ester, each test compound was dissolved at a concentration of 10 mM in dimethyl sulfoxide and diluted with a buffer solution for assay. Then, 150 μL of the solution was added to the cells, which were then incubated for 30 minutes.
(§2) A ligand peptide (Pyr-[…]NH2; Peptide Institute, Inc.) derived from human orexin-A by the substitution of two amino acids was diluted with a buffer solution for assay to final concentrations of 300 pM for hOX1R and 3 nM for hOX2R. Reaction was initiated by the addition of 50 μL of this ligand solution. The fluorescence intensity of the reaction was measured in each well every second for 3 minutes using Functional Drug Screening System (FDSS; manufactured by Hamamatsu Photonics K.K.), and the maximum fluorescence intensity was used as an index for intracellular Ca^2+ concentration to determine antagonistic activity. The antagonistic activity of the test compound was calculated with fluorescence intensity from a well supplemented with only a diluting buffer solution as 100% and fluorescence intensity from a well supplemented with a buffer solution free from the ligand and the compound as 0%. The 50% inhibitory concentration (IC50 value) was determined on the basis of fluorescence intensity derived from the test compound added at varying concentrations.

The target of assay [2] is T2, orexin-2 receptor (hOX2R) (Homo sapiens, UniProt O43614).
T2 construct: expressed in transfected cells; host or cells: Chinese hamster ovary (CHO) cells
T2 sequence (O43614 1-444): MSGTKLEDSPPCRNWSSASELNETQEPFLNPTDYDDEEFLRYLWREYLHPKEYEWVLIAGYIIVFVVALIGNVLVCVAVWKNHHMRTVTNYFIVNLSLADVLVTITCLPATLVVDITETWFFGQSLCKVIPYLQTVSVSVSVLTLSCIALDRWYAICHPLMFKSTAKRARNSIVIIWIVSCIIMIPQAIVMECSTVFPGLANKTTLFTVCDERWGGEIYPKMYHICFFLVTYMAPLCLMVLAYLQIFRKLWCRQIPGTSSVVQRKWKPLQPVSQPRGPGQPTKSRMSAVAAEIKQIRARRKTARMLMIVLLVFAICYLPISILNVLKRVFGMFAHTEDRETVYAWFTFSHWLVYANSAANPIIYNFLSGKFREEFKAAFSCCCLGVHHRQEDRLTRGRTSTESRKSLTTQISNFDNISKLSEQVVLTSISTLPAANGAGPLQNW
The assay is described as follows: Orexin antagonistic activity assay (intracellular Ca2+, FDSS) in CHO cells expressing hOX2R. The settings on record: CHO cells expressing hOX2R; ligand peptide 3 nM; Fluo-3 maximum fluorescence intensity; read-out: IC50 value OX2. In kind it is cell-based. Here is the method:
as §1, §2

On to `C[C@@H]1CC[C@@H](c2nc3cc(F)c(F)cc3o2)CN1C(=O)c1cc(Cl)ccc1-c1ncccn1` [Example 53, [5-Chloro-2-(pyrimidin-2-yl)phenyl][(2R,5R)-5-(5,6-difluoro-1,3-benzoxazol-2-yl)-2-methylpiperidin-1-yl]methanone], for which the IC50 in assay [1] turned out to be 56.3 nM; in assay [2] it was 13.2 nM.
Taken in the same sequence, the figures for `C[C@@H]1CC[C@@H](c2nc3ccc(Cl)cc3o2)CN1C(=O)c1cc(F)ccc1-c1ncccn1` [Example 45, [(2R,5R)-5-(6-Chloro-1,3-benzoxazol-2-yl)-2-methylpiperidin-1-yl][5-fluoro-2-(pyrimidin-2-yl)phenyl]methanone] were 77.2 nM and 12.2 nM.
The like results for `C[C@@H]1CC[C@@H](c2nc3cc(Cl)ccc3o2)CN1C(=O)c1ccccc1-c1ncccn1` (single isomer, unassigned) [Example 7, [(2R*,5R*)-5-(5-Chloro-1,3-benzoxazol-2-yl)-2-methylpiperidin-1-yl][2-(pyrimidin-2-yl)phenyl]methanone] were, in that order, 49.5 nM and 2 nM.
Taken in the same sequence, the figures for `Cc1ccc(-n2nccn2)c(C(=O)N2C[C@H](c3nc4cc(Cl)cnc4o3)CC[C@H]2C)c1` [Example 71, [(2R,5R)-5-(6-Chloro[1,3]oxazolo[5,4-b]pyridin-2-yl)-2-methylpiperidin-1-yl][5-methyl-2-(2H-1,2,3-triazol-2-yl)phenyl]methanone] were 106 nM and 6.1 nM.
`C[C@@H]1CC[C@@H](c2nc3cc(Cl)ccc3o2)CN1C(=O)c1ccc(Cl)cc1-n1nccn1` [Example 27, [(2R,5R)-5-(5-Chloro-1,3-benzoxazol-2-yl)-2-methylpiperidin-1-yl][4-chloro-2-(2H-1,2,3-triazol-2-yl)phenyl]methanone]: the IC50 in assay [1] amounted to 1790 nM; in assay [2], 187 nM.
The like results for `Cc1ccc(-c2ncccn2)c(C(=O)N2C[C@H](c3nc4cc(C#N)ccc4o3)CC[C@H]2C)c1` [Example 57, 2-{(3R,6R)-6-Methyl-1-[5-methyl-2-(pyrimidin-2-yl)benzoyl]piperidin-3-yl}-1,3-benzoxazole-5-carbonitrile] were, in that order, 561 nM and 20.1 nM.
Taken in the same sequence, the figures for `C[C@@H]1CC[C@@H](c2nc3cc(Cl)ccc3o2)CN1C(=O)c1cc(F)ccc1-c1ncccn1` (single isomer, unassigned) [Example 6, [(2R*,5R*)-5-(5-Chloro-1,3-benzoxazol-2-yl)-2-methylpiperidin-1-yl][5-fluoro-2-(pyrimidin-2-yl)phenyl]methanone] were 54.5 nM and 2.9 nM.
Taken in the same sequence, the figures for `C[C@@H]1CC[C@@H](c2nc3cc(F)ccc3o2)CN1C(=O)c1c(F)cccc1-n1nccn1` [Example 35, [(2R,5R)-5-(5-Fluoro-1,3-benzoxazol-2-yl)-2-methylpiperidin-1-yl][2-fluoro-6-(2H-1,2,3-triazol-2-yl)phenyl]methanone] were 91.1 nM and 5 nM.
Turning to `Cc1ccc(-n2nccn2)c(C(=O)N2C[C@H](c3nc4ccc(F)c(F)c4o3)CC[C@H]2C)c1` [Example 58, [(2R,5R)-5-(6,7-Difluoro-1,3-benzoxazol-2-yl)-2-methylpiperidin-1-yl][5-methyl-2-(2H-1,2,3-triazol-2-yl)phenyl]methanone], the IC50 in assay [1] was found to be 9.3 nM; in assay [2] it was 9.4 nM.
Take `Cc1ccc(-n2nccn2)c(C(=O)N2C[C@H](c3nc4c(F)cccc4o3)CC[C@H]2C)c1` [Example 66, [(2R,5R)-5-(4-Fluoro-1,3-benzoxazol-2-yl)-2-methylpiperidin-1-yl][5-methyl-2-(2H-1,2,3-triazol-2-yl)phenyl]methanone]: the half-maximal inhibitory concentration (IC50) was 36.5 nM in assay [1] and 20.4 nM in assay [2].
Taken in the same sequence, the figures for `COc1cnc(-c2ccc(F)cc2C(=O)N2C[C@H](c3nc4cc(Cl)ccc4o3)CC[C@H]2C)nc1` [Example 24, [(2R,5R)-5-(5-Chloro-1,3-benzoxazol-2-yl)-2-methylpiperidin-1-yl][5-fluoro-2-(5-methoxypyrimidin-2-yl)phenyl]methanone] were 99.2 nM and 8.5 nM.
Taken in the same sequence, the figures for `C[C@@H]1CC[C@@H](c2nc3cc(Cl)ccc3o2)CN1C(=O)c1cccc(F)c1-n1nccn1` [Example 15, [(2R,5R)-5-(5-Chloro-1,3-benzoxazol-2-yl)-2-methylpiperidin-1-yl][3-fluoro-2-(2H-1,2,3-triazol-2-yl)phenyl]methanone] were 142 nM and 9.7 nM.
Turning to `Cc1ccc(-n2nccn2)c(C(=O)N2C[C@H](c3nc4cccc(F)c4o3)CC[C@H]2C)c1` [Example 65, [(2R,5R)-5-(7-Fluoro-1,3-benzoxazol-2-yl)-2-methylpiperidin-1-yl][5-methyl-2-(2H-1,2,3-triazol-2-yl)phenyl]methanone], the results for the IC50 in assay [1] and in assay [2] were 8.6 nM and 6.6 nM, respectively.
Taken in the same sequence, the figures for `Cc1ccc(-c2ncccn2)c(C(=O)N2C[C@H](c3nc4cc(F)cc(F)c4o3)CC[C@H]2C)c1` [Example 63, [(2R,5R)-5-(5,7-Difluoro-1,3-benzoxazol-2-yl)-2-methylpiperidin-1-yl][5-methyl-2-(pyrimidin-2-yl)phenyl]methanone] were 29.1 nM and 5.5 nM.
As to `Cc1ccc(-n2nccn2)c(C(=O)N2C[C@H](c3nc4cc(F)cc(F)c4o3)CC[C@H]2C)n1` [Example 64, [(2R,5R)-5-(5,7-Difluoro-1,3-benzoxazol-2-yl)-2-methylpiperidin-1-yl][6-methyl-3-(2H-1,2,3-triazol-2-yl)pyridin-2-yl]methanone], the IC50 in assay [1] was 144 nM; in assay [2] it was 28.5 nM.
Taken in the same sequence, the figures for `C[C@@H]1CC[C@@H](c2nc3cc(C(F)(F)F)ccc3o2)CN1C(=O)c1cc(Cl)ccc1-c1ncccn1` [Example 39, [5-Chloro-2-(pyrimidin-2-yl)phenyl]{(2R,5R)-2-methyl-5-[5-(trifluoromethyl)-1,3-benzoxazol-2-yl]piperidin-1-yl}methanone] were 123 nM and 26.3 nM.
As to `Cc1ccc(-n2nccn2)c(C(=O)N2C[C@H](c3nc4c(F)cc(F)cc4o3)CC[C@H]2C)c1` [Example 60, [(2R,5R)-5-(4,6-Difluoro-1,3-benzoxazol-2-yl)-2-methylpiperidin-1-yl][5-methyl-2-(2H-1,2,3-triazol-2-yl)phenyl]methanone], the IC50 in assay [1] turned out to be 93.3 nM; in assay [2], 45.7 nM.
The like results for `Cc1ccc(-n2nccn2)c(C(=O)N2C[C@H](c3nc4cc(F)ccc4o3)CC[C@H]2C)c1` (single isomer, unassigned) [Example 10, [(2R*,5R*)-5-(5-Fluoro-1,3-benzoxazol-2-yl)-2-methylpiperidin-1-yl][5-methyl-2-(2H-1,2,3-triazol-2-yl)phenyl]methanone] were, in that order, 4.8 nM and 4.9 nM.
Taken in the same sequence, the figures for `Cc1ccc(-c2ncccn2)c(C(=O)N2C[C@H](c3nc4c(F)cccc4o3)CC[C@H]2C)c1` [Example 67, [(2R,5R)-5-(4-Fluoro-1,3-benzoxazol-2-yl)-2-methylpiperidin-1-yl][5-methyl-2-(pyrimidin-2-yl)phenyl]methanone] were 27.7 nM and 25.9 nM.
